“Also recorded” adds a separate entry of the source. Where a name gives a salt, the structure may show the parent alone.
Tested on: ZIKV (MR766 strain)
Test: ZIKV infection of human forebrain organoids (MR766)
Format: cell-based, Zika virus
Procedure: (A) Experimental design for evaluating the therapeutic efficacy and safety of HH using forebrain organoids. D20 or D40 Forebrain organoids were exposed to ZIKV (5×10^5 PFU/ml) or mock-treated for 24 h. After removal of ZIKV-containing medium, fresh virus-free medium plus compounds were added. Organoids were analyzed at day 4 (D20+4) or day 18 (D20+18) after initial ZIKV infection. (B and C) HH eliminates ZIKV infection in short-term cultures. Immunocytochemistry analysis (B) and the quantification of infection rate (C) of mock, DMSO or 25 μM HH treated ZIKV-infected D20 organoids (n=3). Scale bars, 100 μm. D20+4 organoids mainly consist of SOX2^+ progenitors and are highly infiltrated by ZIKV. […] (D) qRT-PCR analysis of total ZIKV vRNA in the supernatant of DMSO or 25 μM HH treated ZIKV-infected D20 and D40 organoids (n=3). (E) HH rescues ZIKV-related proliferation and apoptosis defects in D20+4 organoids. The number of proliferating cells (Ki67^+) is decreased and the number of apoptotic cells (CAS^+) is increased in ZIKV-infected organoids compared to mock and 25 μM HH treated organoids (n=3). Scale bars, 100 μm. […] Scale bars, 50 μm. […] Quantifications show average organoid perimeter of D20+18 organoids (H). Values represent mean±SEM (n=3). Scale bars, 1 mm. (I) HH rescues ZIKV-induced structural defects in forebrain organoids. Mock treated organoids contain clearly defined progenitor (SOX2) and neuronal (TUJ1) zones. Neurons migrate out of progenitor zones and settle at the edge of the organoid, while progenitor zones occupy more interior regions of the organoid. In contrast, D20+18 ZIVK infected organoids lack clearly defined progenitor and neuronal zones, which appear to intermix. Both neuron and progenitor zones appear to settle at the edge of the organoid. HH rescues the well-delineated structure of forebrain organoids (n=3). Scale bars, 100 μm. p values were calculated by unpaired two-tailed Student's t-test. *p<0.05, **p<0.01 and ***p<0.001.
D20 forebrain organoids were inoculated with ZIKV (MR766 strain) for 24 h, followed by treatment with 15 μM AQ or 25 μM HH for 3 days (D20+4, short-term) or 17 days (D20+18, long-term). Organoids were analyzed for ZIKV infection, cell proliferation, and apoptosis (FIG. 3A).
Generation and culture of human forebrain organoids. To induce forebrain organoid differentiation, H9 hESC line (WA-09, WiCell) hPSCs were dissociated to single cells using EDTA, and 9000 cells were reaggregated using low-adhesion V-bottom 96 well plates (Wako) in Essential8 Medium (Fisher Scientific) with 10 μM Y-27632 (Tocris Biosciences). After 24 h (day 0), medium was changed to Essential6 (Fischer Scientific) supplemented with 10 μM SB431542 (Tocris Biosciences), 500 nM LDN193189 (Stem Cell Technologies), and 2 μM XAV939 (Tocris Biosciences) until day 4. […]

Structure (SMILES)	ZIKV infection in D20 organoids (15 μM AQ, D20+4, dihydrochloride dihydrate)	total ZIKV vRNA level in supernatant from D20+4 organoids (25 μM HH)	ZIKV infection rate in D20+4 forebrain organoids (25 μM HH, 3 day treatment, hydrobromide)	ZIKV infection in D20+18 organoids (long-term) (HH treated, 18 days after infection, hydrobromide)
CCN(CC)Cc1cc(Nc2ccnc3cc(Cl)ccc23)ccc1O [AQ, amodiaquine dihydrochloride dihydrate]	suppresses ZIKV infection; also recorded: reduces ZIKV infection	–	–	–
CN1CCC2=C[C@H](O)[C@H]3OC(=O)c4cc5c(cc4[C@H]3[C@@H]21)OCO5 [HH, hippeastrine hydrobromide]	–	suppresses total ZIKV vRNA level	undetectable levels; also recorded: below the detection limit	devoid of any detectable ZIKV; also recorded: suppressed any detectable ZIKV infection

— US11466020B2, “Compounds and compositions for inhibition and elimination of Zika infection and uses for same” (Cornell University, priority 2017, dated 2022)
